Source: ChEMBL document CHEMBL4304782, “Antioxidant, Anti-inflammatory, and Neuroprotective Effects of Novel Vinyl Sulfonate Compounds as Nrf2 Activator” (ACS Med Chem Lett, 2019)
pEC50: −log10 of the molar value.

Molecular target: T1, Nuclear factor erythroid 2-related factor 2 (Homo sapiens, UniProt Q16236)
T1 sequence (Q16236 whole entry): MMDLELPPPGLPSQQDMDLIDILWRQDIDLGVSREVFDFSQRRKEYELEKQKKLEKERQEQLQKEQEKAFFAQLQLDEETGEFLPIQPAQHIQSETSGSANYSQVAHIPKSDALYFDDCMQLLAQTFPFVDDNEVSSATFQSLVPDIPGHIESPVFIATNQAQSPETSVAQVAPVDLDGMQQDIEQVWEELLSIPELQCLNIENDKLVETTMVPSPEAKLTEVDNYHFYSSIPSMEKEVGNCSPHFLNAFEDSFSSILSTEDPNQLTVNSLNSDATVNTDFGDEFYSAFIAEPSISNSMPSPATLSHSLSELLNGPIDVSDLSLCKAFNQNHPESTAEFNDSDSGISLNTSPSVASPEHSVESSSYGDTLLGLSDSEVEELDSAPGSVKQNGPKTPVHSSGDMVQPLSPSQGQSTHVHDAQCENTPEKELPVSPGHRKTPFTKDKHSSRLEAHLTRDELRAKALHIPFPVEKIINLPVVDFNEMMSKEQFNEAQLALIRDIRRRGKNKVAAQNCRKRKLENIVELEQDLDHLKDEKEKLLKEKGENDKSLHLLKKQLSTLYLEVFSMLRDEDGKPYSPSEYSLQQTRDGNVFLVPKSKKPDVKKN
Assay: Activation of ED-tagged Nrf2 in human U2OS cells co-expressing Keap1 assessed as induction of NRF2 translocation to nucleus after 6 hrs by beta-galactosidase based chemiluminescent assay
Assay type: cell-based

pEC50 | Compound
5.98 | O=S(=O)(/C=C/c1ccccc1)Oc1ccccc1
5.75 | COc1cccc(OS(=O)(=O)/C=C/c2ccc(Cl)cc2)c1
< 5.00 | COc1ccc(NS(=O)(=O)/C=C/c2ccccc2Cl)cc1
5.94 | COc1ccc(OS(=O)(=O)/C=C/c2ccc(Cl)cc2)cc1
6.02 | COc1ccc(OS(=O)(=O)/C=C/c2cccc(Cl)c2)cc1
6.16 | COc1ccccc1OS(=O)(=O)/C=C/c1cccc(Cl)c1
< 5.00 | COc1cccc(NS(=O)(=O)/C=C/c2ccccc2Cl)c1
6.03 | COc1cccc(OS(=O)(=O)/C=C/c2cccc(Cl)c2)c1
